# According to patent US20150153325A1 (priority 2012, published 2015):
# “And” between values parts separate entries of the source, which are not always exact repeats. Identical values can stand only once. Like-named read-outs stand apart in the source and are kept apart here.
# Assays:
# [1] = test system: glutamate-induced neurotoxicity in ESNs; assay type: cell-based, mouse
# VAMP2 = VAMP2 (Mus musculus, UniProt P63044); assay type: cell-based
# ESNs [2] = assay type: cell-based, mouse
# ESNs [3] = assay type: cell-based, mouse; remark: listed apart in the source
# ESNs [4] = experiment: cells; assay type: cell-based, mouse; settings: read-out: EC50 of loss of viability (metabolic activity)
# ESNs [5] = assay type: cell-based, mouse; remark: listed apart in the source
# ESNs [6] = settings: mouse
# [7] = test system: Ca^2+ influx through LTX pores; assay type: cell-based, mouse
# ESNs [8] = assay type: cell-based, mouse; remark: listed apart in the source
# ESNs [9] = assay type: cell-based, mouse; settings: read-out: EC50 for Ca^2+ uptake
# ESNs [10] = assay type: cell-based, mouse; remark: listed apart in the source
# BoNT/A-intoxicated ESNs = assay type: cell-based, mouse
# Chain of VAMP2 (P63044 2-116 limits assumed): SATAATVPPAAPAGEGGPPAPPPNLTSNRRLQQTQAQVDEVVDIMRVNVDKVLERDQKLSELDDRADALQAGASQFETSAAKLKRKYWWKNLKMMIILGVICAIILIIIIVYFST
compound,measurement,setting,value
"N#Cc1cc2c(cc1[N+](=O)[O-])=NC(=O)C(=O)N=2 [CNQX, 6-cyano-7-nitroquinoxaline-2,3-dione]",effect on glutamate-induced cell death,[1],not protective
Tetanospasmin neurotoxin [tetanus],VAMP2 signal by immunoblot,VAMP2,nearly complete loss of VAMP2 signal
gadolinium chloride [Gd^3+],effect on glutamate-induced cell death,[1],no effect on viability
same,elimination of acute glutamate-evoked Ca^2+ signal,ESNs [2],over 95%
"NCCCC(=O)O [GABA, γ-aminobutyric acid]",acute Ca^2+ uptake,ESNs [2],no effect
NCc1cc(=O)[nH]o1 [muscimol],GABA-A receptor current,ESNs [3],evokes a strong outward Cl− current
"N[C@@H](CCC(=O)O)C(=O)[O-].[Na+] [glutamate, Mono-sodium glutamate]",EC50,"ESNs [4]; Mus musculus, 24 h",410 nM
same,Normalize log2 (FC) Casp4,ESNs [5],2.96
same,Normalize log2 (FC) Casp6,ESNs [5],2.15
same,Normalize log2 (FC) Casp12,ESNs [5],3.03
same,Normalize log2 (FC) Cdk1,ESNs [5],3.11
same,Normalize log2 (FC) CflaR,ESNs [5],2.54
same,Normalize log2 (FC) Dap1,ESNs [5],2.84
same,Normalize log2 (FC) Dapk2,ESNs [5],4.18
same,Normalize log2 (FC) Dram1,ESNs [5],2.63
same,Normalize log2 (FC) Fadd1,ESNs [5],1.98
same,Normalize log2 (FC) Grin1,ESNs [5],0.39
same,Normalize log2 (FC) Pawr,ESNs [5],3.49
same,Normalize log2 (FC) Snap25,ESNs [5],−0.52
same,Normalize log2 (FC) Traf1,ESNs [5],5.02
same,duration of evoked series of action potentials,ESNs [3],5 to 10 s
same,concentration at which primary necrosis was first observed,ESNs [6],3000 µM
"N[C@H](CCCP(=O)(O)O)C(=O)O [APV, R-2-amino-5-phosphonopentanoate]",effect on NMDA-induced neurotoxicity,[1],blocked in a dose-dependent manner
same,effect on glutamate-induced cell death,[1],prevented glutamate-induced cell death in a dose-dependent manner
"CN[C@H](CC(=O)O)C(=O)O [NMDA, N-methyl-D-aspartate]",EC50,ESNs [4],390 nM
α-Latrotoxin [LTX],"Ca^2+ influx, normalized to LTX (%)",[7],100.0%
same,decrease of total protein yield compared to controls,ESNs [8],44±16% and 52±19%
same,decrease of total protein yield relative to untreated cultures,ESNs [8],approximately 50%
same,EC50,ESNs [9],0.175 nM
same,delay between addition and onset of Fluo-4 fluorescence,ESNs [10],1.5 min
same,rescue of full-length SNAP-25,BoNT/A-intoxicated ESNs,92±4.6% and 98±1.7%
